Test results published in US20040157845A1, “Vanilloid receptor ligands and their use in treatments” (Amgen Inc., priority 2003, published 2004).

SMILES	melting point
Cc1nc(Cc2c(Cl)cccc2Cl)sc1C(=O)Nc1ccc(C(F)(F)F)cc1 [Example 7, {2-[(2,6-Dichlorophenyl)methyl]-4-methyl(1,3-thiazol-5-yl)}-N-[4-(trifluoromethyl)phenyl]carboxamide]	180 to 183 °C
O=C(Nc1ccc(C(F)(F)F)cc1)c1coc(Cc2c(Cl)cccc2Cl)n1 [Example 19, {2-[(2,6-Dichlorophenyl)methyl](1,3-oxazol-4-yl)}-N-[4-(trifluoromethyl)-phenyl]carboxamide]	182 to 184 °C
